Where two headings read alike, the source gives them in different places.
Target: IKZF2 (Helios) (Homo sapiens, UniProt Q96SW2+Q9UKS7)
Test: Prolabel quantification of IKZF2 protein levels in 293GT cells
Assay type: cell-based
Settings: 24 h, read-out: IKZF2 % protein reduction at 10 μM, 24 h
[1] = Pro-label assay, 293GT cells, 10 μM

Chain of IKZF2 (Helios) (Q9UKS7 whole entry): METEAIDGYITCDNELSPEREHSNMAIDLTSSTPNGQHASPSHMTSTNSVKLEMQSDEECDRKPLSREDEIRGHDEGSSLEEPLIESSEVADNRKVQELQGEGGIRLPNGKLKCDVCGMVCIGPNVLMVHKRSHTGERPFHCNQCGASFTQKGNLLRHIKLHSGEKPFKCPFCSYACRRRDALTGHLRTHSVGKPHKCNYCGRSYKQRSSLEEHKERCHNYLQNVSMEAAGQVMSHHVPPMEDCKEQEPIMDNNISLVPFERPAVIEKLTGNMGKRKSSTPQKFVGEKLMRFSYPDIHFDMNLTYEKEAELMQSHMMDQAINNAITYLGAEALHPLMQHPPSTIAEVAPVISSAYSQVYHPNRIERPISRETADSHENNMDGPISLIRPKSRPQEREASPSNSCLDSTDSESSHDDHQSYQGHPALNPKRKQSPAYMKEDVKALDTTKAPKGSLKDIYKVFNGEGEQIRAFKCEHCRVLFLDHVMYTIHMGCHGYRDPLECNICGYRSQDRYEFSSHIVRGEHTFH
Chain of IKZF2 (Helios) (Q96SW2 whole entry): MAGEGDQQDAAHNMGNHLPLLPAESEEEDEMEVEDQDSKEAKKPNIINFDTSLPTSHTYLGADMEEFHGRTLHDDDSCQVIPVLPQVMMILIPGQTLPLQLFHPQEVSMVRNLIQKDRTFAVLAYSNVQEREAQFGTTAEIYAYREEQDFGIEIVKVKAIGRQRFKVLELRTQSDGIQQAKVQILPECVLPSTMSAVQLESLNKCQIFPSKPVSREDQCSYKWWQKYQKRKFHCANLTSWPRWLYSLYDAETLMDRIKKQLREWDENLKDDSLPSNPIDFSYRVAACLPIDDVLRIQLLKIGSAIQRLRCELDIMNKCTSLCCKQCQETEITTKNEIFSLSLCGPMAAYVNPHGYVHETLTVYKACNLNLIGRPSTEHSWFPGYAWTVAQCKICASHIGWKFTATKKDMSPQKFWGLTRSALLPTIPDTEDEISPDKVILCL
Chain of IKZF2 (Helios) (Q16531 whole entry partner): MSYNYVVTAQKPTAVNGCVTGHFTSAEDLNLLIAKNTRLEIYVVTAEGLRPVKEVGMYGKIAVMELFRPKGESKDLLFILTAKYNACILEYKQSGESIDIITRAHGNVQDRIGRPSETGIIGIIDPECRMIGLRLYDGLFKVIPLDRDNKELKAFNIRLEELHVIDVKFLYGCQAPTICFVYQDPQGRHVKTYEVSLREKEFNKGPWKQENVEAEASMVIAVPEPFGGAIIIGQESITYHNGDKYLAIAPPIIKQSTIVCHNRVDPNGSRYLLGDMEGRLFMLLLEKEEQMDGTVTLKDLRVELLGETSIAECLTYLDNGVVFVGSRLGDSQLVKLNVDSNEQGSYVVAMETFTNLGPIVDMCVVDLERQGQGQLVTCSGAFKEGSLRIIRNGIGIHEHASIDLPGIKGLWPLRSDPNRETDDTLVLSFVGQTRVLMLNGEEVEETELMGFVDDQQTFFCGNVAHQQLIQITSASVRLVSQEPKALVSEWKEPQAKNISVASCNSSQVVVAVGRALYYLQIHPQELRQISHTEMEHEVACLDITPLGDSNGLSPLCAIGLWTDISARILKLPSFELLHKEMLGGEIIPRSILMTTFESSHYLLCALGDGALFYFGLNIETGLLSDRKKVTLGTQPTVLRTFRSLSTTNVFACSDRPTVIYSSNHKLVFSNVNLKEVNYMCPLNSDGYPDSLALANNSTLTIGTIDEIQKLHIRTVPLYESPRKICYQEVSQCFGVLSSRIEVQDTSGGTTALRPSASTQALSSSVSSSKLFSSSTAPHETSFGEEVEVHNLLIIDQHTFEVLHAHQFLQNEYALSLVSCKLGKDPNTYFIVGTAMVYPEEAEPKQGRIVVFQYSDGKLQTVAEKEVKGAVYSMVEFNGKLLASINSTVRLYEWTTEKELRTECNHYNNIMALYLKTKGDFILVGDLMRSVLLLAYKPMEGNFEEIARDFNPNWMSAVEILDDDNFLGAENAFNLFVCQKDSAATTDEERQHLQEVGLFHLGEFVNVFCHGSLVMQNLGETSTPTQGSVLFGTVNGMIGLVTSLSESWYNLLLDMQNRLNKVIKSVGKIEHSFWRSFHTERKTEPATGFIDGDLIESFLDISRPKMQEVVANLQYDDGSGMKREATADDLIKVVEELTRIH

SMILES | IKZF2 % protein reduction at 10 µM [1] | IKZF2 % protein reduction at 10 µM
O=C1CCC(N2Cc3cc(O[C@H]4CCC[C@@H]4N4CCC(OC(F)F)CC4)ccc3C2=O)C(=O)N1 (stereo partly drawn) [I-195, 3-(5-(((1S,2S)-2-(4-(difluoromethoxy)piperidin-1-yl)cyclopentyl)oxy)-1-oxoisoindolin-2-yl)piperidine-2,6-dione] | – | 85%
N[C@H]1c2ccccc2C[C@@H]1Oc1ccc2c(c1)CN(C1CCC(=O)NC1=O)C2=O (stereo partly drawn) [I-197, 3-(5-(((1S,2S)-1-amino-2,3-dihydro-1H-inden-2-yl)oxy)-1-oxoisoindolin-2-yl)piperidine-2,6-dione] | – | 68%
CCN[C@H]1c2ccccc2C[C@@H]1Oc1ccc2c(c1)CN(C1CCC(=O)NC1=O)C2=O (stereo partly drawn) [I-198, 3-(5-(((1S,2S)-1-(ethylamino)-2,3-dihydro-1H-inden-2-yl)oxy)-1-oxoisoindolin-2-yl)piperidine-2,6-dione] | – | 67%
CCN(CC)[C@H]1c2ccccc2C[C@@H]1Oc1ccc2c(c1)CN(C1CCC(=O)NC1=O)C2=O (stereo partly drawn) [I-199, 3-(5-(((1S,2S)-1-(diethylamino)-2,3-dihydro-1H-inden-2-yl)oxy)-1-oxoisoindolin-2-yl)piperidine-2,6-dione] | – | 71%
N[C@H]1CCC[C@@H]1Oc1ccc2c(c1F)CN(C1CCC(=O)NC1=O)C2=O (stereo partly drawn) [I-213, 3-(5-(((1S,2S)-2-aminocyclopentyl)oxy)-4-fluoro-1-oxoisoindolin-2-yl)piperidine-2,6-dione] | 20% | –
CCN(CC)[C@H]1CCC[C@@H]1Oc1ccc2c(c1F)CN(C1CCC(=O)NC1=O)C2=O (stereo partly drawn) [I-214, 3-(5-(((1S,2S)-2-(diethylamino)cyclopentyl)oxy)-4-fluoro-1-oxoisoindolin-2-yl)piperidine-2,6-dione] | 40% | –
N[C@H]1CCC[C@@H]1Oc1cc2c(cc1F)C(=O)N(C1CCC(=O)NC1=O)C2 (stereo partly drawn) [I-215, 3-(5-(((1S,2S)-2-aminocyclopentyl)oxy)-6-fluoro-1-oxoisoindolin-2-yl)piperidine-2,6-dione] | 30% | –
CCN(CC)[C@H]1CCC[C@@H]1Oc1cc2c(cc1F)C(=O)N(C1CCC(=O)NC1=O)C2 (stereo partly drawn) [I-216, 3-(5-(((1S,2S)-2-(diethylamino)cyclopentyl)oxy)-6-fluoro-1-oxoisoindolin-2-yl)piperidine-2,6-dione] | 60% | –

The next lines start with results.

IKZF2 % protein reduction at 10 µM [1] | SMILES | IKZF2 % protein reduction at 10 µM
83% | CO[C@H]1CC[C@@H](CN[C@H]2CCC[C@@H]2Oc2ccc3c(c2)CN(C2CCC(=O)NC2=O)C3=O)CC1 (stereo partly drawn) [I-191, 3-(5-(((1S,2S)-2-((((1s,4R)-4-methoxycyclohexyl)methyl)amino)cyclopentyl)oxy)-1-oxoisoindolin-2-yl)piperidine-2,6-dione] | –
83% | O=C1CCC(N2Cc3cc(O[C@H]4CCC[C@@H]4NCC4CC(F)(F)C4)ccc3C2=O)C(=O)N1 (stereo partly drawn) [I-194, 3-(5-(((1S,2S)-2-(((3,3-difluorocyclobutyl)methyl)amino)cyclopentyl)oxy)-1-oxoisoindolin-2-yl)piperidine-2,6-dione] | –
68% | O=C1CCC(N2Cc3cc(O[C@H]4CCC[C@@H]4N4Cc5ccncc5C4)ccc3C2=O)C(=O)N1 (stereo partly drawn) [I-196, 3-(5-(((1S,2S)-2-(1,3-dihydro-2H-pyrrolo[3,4-c]pyridin-2-yl)cyclopentyl)oxy)-1-oxoisoindolin-2-yl)piperidine-2,6-dione] | –
71% | CCN(C)[C@H]1c2ccccc2C[C@@H]1Oc1ccc2c(c1)CN(C1CCC(=O)NC1=O)C2=O (stereo partly drawn) [I-200, 3-(5-(((1S,2S)-1-(ethyl(methyl)amino)-2,3-dihydro-1H-inden-2-yl)oxy)-1-oxoisoindolin-2-yl)piperidine-2,6-dione] | –
46% | CN(C)[C@H]1c2ccccc2C[C@@H]1Oc1ccc2c(c1)CN(C1CCC(=O)NC1=O)C2=O (stereo partly drawn) [I-201, 3-(5-(((1S,2S)-1-(dimethylamino)-2,3-dihydro-1H-inden-2-yl)oxy)-1-oxoisoindolin-2-yl)piperidine-2,6-dione] | –
